The test system of one assay is SJSA-1 cells. Kind of assay: Cell lysis by peptidomimetic macrocycles (LDH release). The class given is cell-based. The conditions noted are these: SJSA-1, 1 h. The gist of the method: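 Membrane lysis measured as supernatant LDH after a 1 h, 37 °C exposure of SJSA-1 cells, held in RPMI with 1% FBS, to macrocycles at final 6.25-50 μM with 0.5% DMSO. Lytic references were 10 μM melittin and 1% Triton X-100; DMSO alone served as non-lytic control.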

In the next assay the test system is Caspase 3. Kind of assay: Caspase 3 detection assay in SJSA1 cells. Format: cell-based. The conditions noted are these: SJSA1, 48 h, Caspase 3 activation over DMSO-treated cells.
Another assay relates to RKO. The assay can be described thus: Cell viability assay (MTT), RKO. The note with it: read-out: RKO EC50 (72 h).

Bridge positions count the residues as written; N and C are the ends. Square brackets hold non-standard residues; d marks the D form. Peptide text beside a SMILES is read from it. Trp(6-Cl) = N[C@@H](Cc1c[nH]c2cc(Cl)ccc12)C(=O)O; Phe(4-COOH) = N[C@@H](Cc1ccc(C(=O)O)cc1)C(=O)O; R8 = C=CCCCCCC[C@@](C)(N)C(=O)O; Cba = N[C@@H](CC1CCC1)C(=O)O; hLeu = CC(C)CC[C@H](N)C(=O)O; S5 = C=CCCC[C@](C)(N)C(=O)O Some results are limits rather than exact numbers.

For `CC(=O)N[C@@H](CC(C)C)C(=O)N[C@H](C(=O)N[C@@H](Cc1ccccc1)C(=O)N[C@]1(C)CCCCCCC=CCCC[C@@](C)(C(=O)N[C@@H](CO)C(=O)N[C@@H](CC(C)C)C(=O)N[C@@H](C)C(N)=O)NC(=O)[C@H](CC(C)C)NC(=O)[C@H](CCC(N)=O)NC(=O)[C@H](C)NC(=O)[C@H](Cc2c[nH]c3ccccc23)NC(=O)[C@H](Cc2ccc(O)cc2)NC(=O)[C@H](C)NC1=O)[C@@H](C)O` (single isomer, unassigned) [compound 118], in the assay with SJSA-1 cells, the “6.25 μM % Lysed cells (1 h LDH)” value was 4%, the “25 μM % Lysed cells (1 h LDH)” value is given as 2% and the “50 μM % Lysed cells (1 h LDH)” value was 4%. Further, in the assay with Caspase 3, the “caspase 0.3 μM” value is given as 1, the “caspase 3 μM” value was determined as 2, the “caspase 10 μM” value stood at 18 and the “caspase 30 μM” value is reported as 27. For the same compound, in the assay with RKO, the EC50 is below 5 µM.
`CC(=O)N[C@@H](CC(C)C)C(=O)N[C@H](C(=O)N[C@@H](Cc1ccccc1)C(=O)N[C@]1(C)CCCCCC/C=C/CCC[C@@](C)(C(=O)N[C@@H](CO)C(=O)N[C@@H](C)C(=O)N[C@@H](C)C(N)=O)NC(=O)[C@H](CC(C)C)NC(=O)[C@H](CCC(N)=O)NC(=O)[C@H](C)NC(=O)[C@H](Cc2c[nH]c3cc(Cl)ccc23)NC(=O)[C@H](Cc2ccc(O)cc2)NC(=O)[C@H](C)NC1=O)[C@@H](C)O` [compound 99] (Ac-LTF[R8]AY[Trp(6-Cl)]AQL[S5]SAA-NH2; staple (E) 4-11): in the assay with SJSA-1 cells, the “6.25 μM % Lysed cells (1 h LDH)” value came out at 1.5%, the “25 μM % Lysed cells (1 h LDH)” value was determined as 2% and the “50 μM % Lysed cells (1 h LDH)” value was 3.5%. Besides, in the assay on Caspase 3, the “caspase 0.3 μM” value is reported as 1, the “caspase 3 μM” value stood at 7, the “caspase 10 μM” value is on record as 31 and the “caspase 30 μM” value is given as 33. Also, in the assay with RKO, the concentration giving a half-maximal response (EC50) was below 5 µM.
Take `CC(=O)N[C@@H](CC(C)C)C(=O)N[C@H](C(=O)N[C@@H](Cc1ccccc1)C(=O)N[C@]1(C)CCCCCCC=CCCC[C@@](C)(C(=O)N[C@@H](CO)C(=O)N[C@@H](Cc2c[nH]c3ccccc23)C(=O)N[C@@H](C)C(N)=O)NC(=O)[C@H](CC(C)C)NC(=O)[C@H](CCC(N)=O)NC(=O)[C@H](C)NC(=O)[C@H](Cc2c[nH]c3ccccc23)NC(=O)[C@H](Cc2ccc(O)cc2)NC(=O)[C@H](C)NC1=O)[C@@H](C)O` (single isomer, unassigned) [compound 120]: in the assay with SJSA-1 cells, the “6.25 μM % Lysed cells (1 h LDH)” value worked out at 0%, the “25 μM % Lysed cells (1 h LDH)” value worked out at 0% and the “50 μM % Lysed cells (1 h LDH)” value is 6%. Further, in the assay on Caspase 3, the “caspase 0.3 μM” value is reported as 2, the “caspase 3 μM” value came out at 11, the “caspase 10 μM” value is 20 and the “caspase 30 μM” value is recorded as 30. For the same compound, the half-maximal effective concentration (EC50) in the assay on RKO was below 5 µM.
As for `CC(=O)N[C@@H](C)C(=O)N[C@@H](C)C(=O)N[C@@H](CC(C)C)C(=O)N[C@H](C(=O)N[C@@H](Cc1ccccc1)C(=O)N[C@]1(C)CCCCCCC=CCCC[C@@](C)(C(=O)N[C@@H](CO)C(=O)N[C@@H](C)C(=O)N[C@@H](C)C(=O)N[C@@H](C)C(=O)N[C@H](C)C(N)=O)NC(=O)[C@H](CC2CCC2)NC(=O)[C@H](CCC(N)=O)NC(=O)[C@H](C)NC(=O)[C@H](Cc2c[nH]c3ccccc23)NC(=O)[C@H](Cc2ccc(O)cc2)NC(=O)[C@H](CCC(=O)O)NC1=O)[C@@H](C)O` (single isomer, unassigned) [compound 359], in the assay with SJSA-1 cells, the “6.25 μM % Lysed cells (1 h LDH)” value was 0%, the “25 μM % Lysed cells (1 h LDH)” value stood at 0% and the “50 μM % Lysed cells (1 h LDH)” value is recorded as 0%. In addition, in the assay on Caspase 3, the “caspase 0.3 μM” value is given as 3, the “caspase 1 μM” value worked out at 9, the “caspase 3 μM” value turned out to be 11 and the “caspase 10 μM” value came out at 13. In addition, the “caspase 30 μM” value with Caspase 3 was found to be 23. Further, the EC50 in the assay on RKO lay in the range of 15 to 30 µM.
On to `CC(=O)N[C@@H](CC(C)C)C(=O)N[C@H](C(=O)N[C@@H](Cc1ccccc1)C(=O)N[C@]1(C)CCCCCCC=CCCC[C@@](C)(C(=O)N[C@@H](CO)C(=O)N[C@@H](C)C(=O)N[C@@H](C)C(N)=O)NC(=O)[C@H](CC(C)C)NC(=O)[C@H](C)NC(=O)[C@H](C(C)C)NC(=O)[C@H](Cc2c[nH]c3ccccc23)NC(=O)[C@H](Cc2ccc(O)cc2)NC(=O)[C@H](C)NC1=O)[C@@H](C)O` [compound 196] (Ac-LTF[R8]AYWVAL[S5]SAA-NH2; staple 4-11), for which, in the assay with SJSA-1 cells, the “6.25 μM % Lysed cells (1 h LDH)” value worked out at 0%, the “25 μM % Lysed cells (1 h LDH)” value is on record as 0% and the “50 μM % Lysed cells (1 h LDH)” value is recorded as 3%. In the assay with Caspase 3, the “caspase 0.3 μM” value is 1, the “caspase 3 μM” value is on record as 4, the “caspase 10 μM” value amounted to 33 and the “caspase 30 μM” value was found to be 26. The half-maximal effective concentration (EC50) in the assay with RKO is below 5 µM.
With `CC(=O)N[C@@H](CC(C)C)C(=O)N[C@H](C(=O)N[C@@H](Cc1ccccc1)C(=O)N[C@]1(C)CCCCCCC=CCCC[C@@](C)(C(=O)N[C@@H](CO)C(=O)N[C@@H](C)C(=O)N[C@@H](C)C(N)=O)NC(=O)[C@H](CC2CCCCC2)NC(=O)[C@H](CCC(N)=O)NC(=O)[C@H](C)NC(=O)[C@H](Cc2c[nH]c3ccccc23)NC(=O)[C@H](Cc2ccc(O)cc2)NC(=O)[C@H](CCC(=O)O)NC1=O)[C@@H](C)O` (single isomer, unassigned) [compound 148], in the assay on SJSA-1 cells, the “6.25 μM % Lysed cells (1 h LDH)” value amounted to 0%, the “25 μM % Lysed cells (1 h LDH)” value was −1% and the “50 μM % Lysed cells (1 h LDH)” value is recorded as 0%. For the same compound, in the assay on Caspase 3, the “caspase 0.3 μM” value is reported as 1, the “caspase 3 μM” value was determined as 11, the “caspase 10 μM” value was 23 and the “caspase 30 μM” value worked out at 31. The EC50 with RKO was in the range of 15 to 30 µM.
On to `CC[C@H](C)[C@H](NC(=O)[C@H](C)NC(=O)[C@H](C)NC(=O)[C@]1(C)CCC/C=C/CCCCCC[C@@](C)(NC(=O)[C@H](Cc2ccccc2)NC(=O)[C@@H](NC(=O)[C@H](CC(C)C)NC(C)=O)[C@@H](C)O)C(=O)N[C@@H](CCC(=O)O)C(=O)N[C@@H](Cc2ccc(C(=O)O)cc2)C(=O)N[C@@H](Cc2c[nH]c3ccccc23)C(=O)N[C@@H](C)C(=O)N[C@@H](CCC(N)=O)C(=O)N[C@@H](CC2CCC2)C(=O)N1)C(=O)N[C@H](C)C(N)=O` [compound 249] (Ac-LTF[R8]E[Phe(4-COOH)]WAQ[Cba][S5]AAI[dA]-NH2; staple (E) 4-11), for which, in the assay on SJSA-1 cells, the “6.25 μM % Lysed cells (1 h LDH)” value was 0%, the “25 μM % Lysed cells (1 h LDH)” value was found to be 0% and the “50 μM % Lysed cells (1 h LDH)” value is 0%. Moreover, in the assay on Caspase 3, the “caspase 0.3 μM” value came out at 2, the “caspase 3 μM” value is recorded as 5, the “caspase 10 μM” value came out at 11 and the “caspase 30 μM” value came out at 23. The concentration for a half-maximal effect (EC50) in the assay with RKO is below 5 µM.
In the case of `CC(=O)N[C@@H](C)C(=O)N[C@@H](CC(C)C)C(=O)N[C@H](C(=O)N[C@@H](Cc1ccccc1)C(=O)N[C@]1(C)CCCCCCC=CCCC[C@@](C)(C(=O)N[C@@H](CO)C(=O)N[C@@H](C)C(=O)N[C@@H](C)C(=O)N[C@@H](C)C(=O)N[C@H](C)C(N)=O)NC(=O)[C@H](CC2CCC2)NC(=O)[C@H](CCC(N)=O)NC(=O)[C@H](C)NC(=O)[C@H](Cc2c[nH]c3ccccc23)NC(=O)[C@H](Cc2ccc(O)cc2)NC(=O)[C@H](CCC(=O)O)NC1=O)[C@@H](C)O` (single isomer, unassigned) [compound 357], in the assay with SJSA-1 cells, the “6.25 μM % Lysed cells (1 h LDH)” value came out at 0%, the “25 μM % Lysed cells (1 h LDH)” value came out at 0% and the “50 μM % Lysed cells (1 h LDH)” value came to 0%. In addition, in the assay on Caspase 3, the “caspase 0.3 μM” value stood at 2, the “caspase 1 μM” value came out at 7, the “caspase 3 μM” value turned out to be 11 and the “caspase 10 μM” value is reported as 15. For the same compound, in the assay on Caspase 3, the “caspase 30 μM” value was 23. Besides, in the assay on RKO, the EC50 is below 5 µM.
With `CC(=O)N[C@@H](CC(C)C)C(=O)N[C@H](C(=O)N[C@@H](Cc1ccccc1)C(=O)N[C@]1(C)CCCCCC/C=C/CCC[C@@](C)(C(=O)N[C@@H](CO)C(=O)N[C@@H](C)C(=O)N[C@@H](C)C(N)=O)NC(=O)[C@H](CCC(C)C)NC(=O)[C@H](CCC(N)=O)NC(=O)[C@H](C)NC(=O)[C@H](Cc2c[nH]c3ccccc23)NC(=O)[C@H](Cc2ccc(O)cc2)NC(=O)[C@H](C)NC1=O)[C@@H](C)O` [compound 115] (Ac-LTF[R8]AYWAQ[hLeu][S5]SAA-NH2; staple (E) 4-11), in the assay on SJSA-1 cells, the “6.25 μM % Lysed cells (1 h LDH)” value is reported as 0%, the “25 μM % Lysed cells (1 h LDH)” value was −1% and the “50 μM % Lysed cells (1 h LDH)” value was found to be 6%. For the same compound, in the assay with Caspase 3, the “caspase 0.3 μM” value is recorded as 1, the “caspase 3 μM” value is listed as 10, the “caspase 10 μM” value was 26 and the “caspase 30 μM” value is 32. Besides, the concentration for a half-maximal effect (EC50) in the assay with RKO was 5 to 15 µM.
In the case of `CC(=O)N[C@@H](CC(C)C)C(=O)N[C@H](C(=O)N[C@@H](Cc1ccc(F)c(F)c1)C(=O)N[C@]1(C)CCCCCC/C=C/CCC[C@@](C)(C(=O)N[C@@H](CO)C(=O)N[C@@H](C)C(=O)N[C@@H](C)C(N)=O)NC(=O)[C@H](CCC(C)C)NC(=O)[C@H](CCC(N)=O)NC(=O)[C@H](C)NC(=O)[C@H](Cc2c[nH]c3ccccc23)NC(=O)[C@H](Cc2ccc(O)cc2)NC(=O)[C@H](CCC(=O)O)NC1=O)[C@@H](C)O` [compound 160], in the assay on SJSA-1 cells, the “6.25 μM % Lysed cells (1 h LDH)” value is recorded as −1%, the “25 μM % Lysed cells (1 h LDH)” value is −1% and the “50 μM % Lysed cells (1 h LDH)” value amounted to 1%. In addition, in the assay on Caspase 3, the “caspase 0.3 μM” value was found to be 2, the “caspase 3 μM” value is recorded as 10, the “caspase 10 μM” value turned out to be 16 and the “caspase 30 μM” value is on record as 31. In addition, in the assay on RKO, the EC50 was above 30 µM.

For the origin of these results see patent US20200369728A1, “PEPTIDOMIMETIC MACROCYCLES AND USES THEREOF” (Aileron Therapeutics, Inc., priority 2015, published 2020).
